The record followed here is patent US20230406885A1, “CYCLIC PEPTIDES FOR TRAPPING INTERLEUKIN-1 BETA” (MERCK SHARP & DOHME LLC, priority 2022, published 2023).

The structures appear in SMILES notation. *1 amine or outer side, *2 acyl side, *3 side chain or, on linkers, in order; H or OH if unused. Where a SMILES comes first, the peptide text is derived from it. [ ]: non-standard residue; d: D form. Phe(4-(trans-4-COOH-cHex)) = N[C@@H](Cc1ccc([C@H]2CC[C@H](C(=O)O)CC2)cc1)C(=O)O; Phe(4-(cis-4-COOH-cHex)) = N[C@@H](Cc1ccc([C@H]2CC[C@@H](C(=O)O)CC2)cc1)C(=O)O; Phe(4-(4-Ac-piperazinyl)) = CC(=O)N1CCN(c2ccc(C[C@H](N)C(=O)O)cc2)CC1; Bip(4'-COOH) = N[C@@H](Cc1ccc(-c2ccc(C(=O)O)cc2)cc1)C(=O)O; 1Nal(3S-Me) = C[C@@H](c1cccc2ccccc12)[C@H](N)C(=O)O; Ala(indolin-1-yl) = N[C@@H](CN1CCc2ccccc21)C(=O)O; Phe(4-COOH) = N[C@@H](Cc1ccc(C(=O)O)cc1)C(=O)O; Trp(6-F) = N[C@@H](Cc1c[nH]c2cc(F)ccc12)C(=O)O; dαMeDab = C[C@](CCN[*:3])(N[*:1])C(=O)[*:2]; h3Pal(5-CN) = N#Cc1cncc(CC[C@H](N)C(=O)O)c1; Pro(4R-NH2) = N[C@H]1CN[C@H](C(=O)O)C1; hTyr = N[C@@H](CCc1ccc(O)cc1)C(=O)O; X9 = CCCC[C@](C)(N[*:1])C(=O)[*:2]; hCha = N[C@@H](CCC1CCCCC1)C(=O)O; 4Pal = N[C@@H](Cc1ccncc1)C(=O)O; Cha = N[C@@H](CC1CCCCC1)C(=O)O; dDab = NCC[C@@H](N)C(=O)O; Nle = CCCC[C@H](N)C(=O)O; dDap = NC[C@@H](N)C(=O)O; dNMeA = CN[C@H](C)C(=O)O; Dab = NCC[C@H](N)C(=O)O; Dap = NC[C@H](N)C(=O)O

As a reminder, the IC50 is the concentration needed to halve the response being measured.

The assay addresses T1, Recombinant human IL-1β (Homo sapiens, UniProt P01584).
T1 construct: purchased BioLegend 579404
Description: IL-6 assay in MRC5 cells: inhibition of IL-1β induced IL-6 secretion (AlphaLISA). The assay is classed as cell-based. As to conditions: inhibition of IL-1β induced IL-6 secretion in MRC5 cells; read-out: MRC5 IC50. In a few lines:
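IL-1β at 2×EC80 in seeding medium (EMEM, 0.025% BSA) preincubated 1 h at ambient temperature with compound, then 3000 MRC5 cells/well added and incubated overnight at 37 °C, 5% CO2. IL-6 in conditioned medium quantified by AlphaLISA; IC50 from 4-parameter logistic fit.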
For orientation: In Alpha technology, singlet oxygen from a donor bead excites a nearby acceptor bead.

T1 sequence (P01584 117-269): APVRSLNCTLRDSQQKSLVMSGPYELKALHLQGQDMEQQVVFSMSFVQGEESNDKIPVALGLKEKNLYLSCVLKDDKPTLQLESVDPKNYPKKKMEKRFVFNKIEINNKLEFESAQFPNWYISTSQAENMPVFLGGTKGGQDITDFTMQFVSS

Take `C[C@@H]1C(=O)NCC(=O)N[C@@H](Cc2ccc(-c3ccc(C(=O)O)cc3)cc2)C(=O)N[C@@H](Cc2ccncc2)C(=O)NCC(=O)N[C@H](CCN)C(=O)N[C@@H](CCC2CCCCC2)C(=O)N[C@@H](Cc2ccc([C@H]3CC[C@@H](C(=O)O)CC3)cc2)C(=O)N[C@@H](Cc2c[nH]c3ccccc23)C(=O)N[C@@H](Cc2ccc(C(=O)O)cc2)C(=O)NCC(=O)N2C[C@H](N)C[C@H]2C(=O)N[C@@H]([C@@H](C)c2cccc3ccccc23)C(=O)N[C@@H](CC(=O)O)C(=O)N1C` [Example 191] (cyclo([Phe(4-(cis-4-COOH-cHex))]W[Phe(4-COOH)]G[Pro(4R-NH2)][1Nal(3S-Me)]D[dNMeA]G[Bip(4'-COOH)][4Pal]G[dDab][hCha])): the IC50 was found to be 0.019 nM.

`C[C@@H]1C(=O)NCC(=O)N[C@@H](Cc2ccc(-c3ccc(C(=O)O)cc3)cc2)C(=O)N[C@@H](Cc2ccncc2)C(=O)NCC(=O)N[C@H](CCN)C(=O)N[C@@H](CCC2CCCCC2)C(=O)N[C@@H](Cc2ccc([C@H]3CC[C@H](C(=O)O)CC3)cc2)C(=O)N[C@@H](Cc2c[nH]c3cc(F)ccc23)C(=O)N[C@@H](Cc2ccc(C(=O)O)cc2)C(=O)NCC(=O)N2C[C@H](N)C[C@H]2C(=O)N[C@@H]([C@@H](C)c2cccc3ccccc23)C(=O)N[C@@H](CC(=O)O)C(=O)N1C` [Example 192] (cyclo([Phe(4-(trans-4-COOH-cHex))][Trp(6-F)][Phe(4-COOH)]G[Pro(4R-NH2)][1Nal(3S-Me)]D[dNMeA]G[Bip(4'-COOH)][4Pal]G[dDab][hCha])): the IC50 amounted to 0.015 nM. Turning to `C[C@@H]1C(=O)NCC(=O)N[C@@H](Cc2ccc(-c3ccc(C(=O)O)cc3)cc2)C(=O)N[C@@H](Cc2ccncc2)C(=O)N[C@@H](CO)C(=O)N[C@H](CCN)C(=O)N[C@@H](CCC2CCCCC2)C(=O)N[C@@H](Cc2ccc([C@H]3CC[C@H](C(=O)O)CC3)cc2)C(=O)N[C@@H](Cc2c[nH]c3cc(F)ccc23)C(=O)N[C@@H](Cc2ccc(C(=O)O)cc2)C(=O)NCC(=O)N2C[C@H](N)C[C@H]2C(=O)N[C@@H]([C@@H](C)c2cccc3ccccc23)C(=O)N[C@@H](CC(=O)O)C(=O)N1C` [Example 193] (cyclo([Phe(4-(trans-4-COOH-cHex))][Trp(6-F)][Phe(4-COOH)]G[Pro(4R-NH2)][1Nal(3S-Me)]D[dNMeA]G[Bip(4'-COOH)][4Pal]S[dDab][hCha])), the IC50 came out at 0.012 nM. The result for `C[C@@H]1C(=O)NCC(=O)N[C@@H](Cc2ccc(-c3ccc(C(=O)O)cc3)cc2)C(=O)N[C@@H](Cc2ccncc2)C(=O)NCC(=O)N[C@H](CCN)C(=O)N[C@@H](CCC2CCCCC2)C(=O)N[C@@H](Cc2ccc([C@H]3CC[C@H](C(=O)O)CC3)cc2)C(=O)N[C@@H](Cc2c[nH]c3ccccc23)C(=O)N[C@@H](Cc2ccc(C(=O)O)cc2)C(=O)NCC(=O)N2C[C@H](N)C[C@H]2C(=O)N[C@@H]([C@@H](C)c2cccc3ccccc23)C(=O)N[C@@H](CC(=O)O)C(=O)N1C` [Example 196] (cyclo([Phe(4-(trans-4-COOH-cHex))]W[Phe(4-COOH)]G[Pro(4R-NH2)][1Nal(3S-Me)]D[dNMeA]G[Bip(4'-COOH)][4Pal]G[dDab][hCha])) reads 0.03 nM; that for `CCCC[C@@H]1NC(=O)[C@@H](CCN)NC(=O)CNC(=O)[C@H](Cc2ccncc2)NC(=O)[C@H](Cc2ccc(-c3ccc(C(=O)O)cc3)cc2)NC(=O)CNC(=O)[C@@H](C)N(C)C(=O)[C@H](CC(=O)O)NC(=O)[C@H]([C@@H](C)c2cccc3ccccc23)NC(=O)[C@@H]2C[C@@H](N)CN2C(=O)CNC(=O)[C@H](Cc2ccc(C(=O)O)cc2)NC(=O)[C@H](Cc2c[nH]c3ccccc23)NC(=O)[C@H](Cc2ccc([C@H]3CC[C@H](C(=O)O)CC3)cc2)NC1=O` [Example 197] (cyclo([Phe(4-(trans-4-COOH-cHex))]W[Phe(4-COOH)]G[Pro(4R-NH2)][1Nal(3S-Me)]D[dNMeA]G[Bip(4'-COOH)][4Pal]G[dDab][Nle])), 0.024 nM. With `CC(=O)N1CCN(c2ccc(C[C@@H]3NC(=O)[C@H](CCc4ccc(O)cc4)NC(=O)[C@@H](CCN)NC(=O)CNC(=O)[C@H](CN4CCc5ccccc54)NC(=O)[C@H](Cc4ccc(-c5ccc(C(=O)O)cc5)cc4)NC(=O)CNC(=O)[C@@H](C)N(C)C(=O)[C@H](CC(=O)O)NC(=O)[C@H]([C@@H](C)c4cccc5ccccc45)NC(=O)[C@@H]4C[C@@H](N)CN4C(=O)CNC(=O)[C@H](Cc4ccc(C(=O)O)cc4)NC(=O)[C@H](Cc4c[nH]c5ccccc45)NC3=O)cc2)CC1` [Example 198] (cyclo([Phe(4-(4-Ac-piperazinyl))]W[Phe(4-COOH)]G[Pro(4R-NH2)][1Nal(3S-Me)]D[dNMeA]G[Bip(4'-COOH)][Ala(indolin-1-yl)]G[dDab][hTyr])), the IC50 is 0.021 nM. Regarding `CC(=O)N1CCN(c2ccc(C[C@@H]3NC(=O)[C@H](CCC4CCCCC4)NC(=O)[C@@](C)(CCN)NC(=O)CNC(=O)[C@H](Cc4ccncc4)NC(=O)[C@H](Cc4ccc(-c5ccc(C(=O)O)cc5)cc4)NC(=O)CNC(=O)[C@@H](C)N(C)C(=O)[C@H](CC(=O)O)NC(=O)[C@H]([C@@H](C)c4cccc5ccccc45)NC(=O)[C@@H]4C[C@@H](N)CN4C(=O)CNC(=O)[C@H](Cc4ccc(C(=O)O)cc4)NC(=O)[C@H](Cc4c[nH]c5ccccc45)NC3=O)cc2)CC1` [Example 199] (cyclo([Phe(4-(4-Ac-piperazinyl))]W[Phe(4-COOH)]G[Pro(4R-NH2)][1Nal(3S-Me)]D[dNMeA]G[Bip(4'-COOH)][4Pal]G[dαMeDab][hCha])), the IC50 was found to be 0.024 nM. For the compound `CCCC[C@]1(C)NC(=O)[C@@H](CCN)NC(=O)CNC(=O)[C@H](Cc2ccncc2)NC(=O)[C@H](Cc2ccc(-c3ccc(C(=O)O)cc3)cc2)NC(=O)CNC(=O)[C@@H](C)N(C)C(=O)[C@H](CC(=O)O)NC(=O)[C@H]([C@@H](C)c2cccc3ccccc23)NC(=O)[C@@H]2C[C@@H](N)CN2C(=O)CNC(=O)[C@H](Cc2ccc(C(=O)O)cc2)NC(=O)[C@H](Cc2c[nH]c3ccccc23)NC(=O)[C@H](Cc2ccc(N3CCN(C(C)=O)CC3)cc2)NC1=O` [Example 200] (cyclo([Phe(4-(4-Ac-piperazinyl))]W[Phe(4-COOH)]G[Pro(4R-NH2)][1Nal(3S-Me)]D[dNMeA]G[Bip(4'-COOH)][4Pal]G[dDab][X9])), the IC50 is 0.034 nM.

Consider `CC(=O)N1CCN(c2ccc(C[C@@H]3NC(=O)[C@H](CCC4CCCCC4)NC(=O)[C@@H](CCN)NC(=O)CNC(=O)[C@H](Cc4ccncc4)NC(=O)[C@H](Cc4ccc(-c5ccc(C(=O)O)cc5)cc4)NC(=O)CNC(=O)[C@@H](C)N(C)C(=O)[C@H](CC(=O)O)NC(=O)[C@H]([C@@H](C)c4cccc5ccccc45)NC(=O)[C@@H]4C[C@@H](N)CN4C(=O)CNC(=O)[C@H](Cc4ccc(C(=O)O)cc4)NC(=O)[C@H](Cc4c[nH]c5ccccc45)NC3=O)cc2)CC1` [Example 201] (cyclo([Phe(4-(4-Ac-piperazinyl))]W[Phe(4-COOH)]G[Pro(4R-NH2)][1Nal(3S-Me)]D[dNMeA]G[Bip(4'-COOH)][4Pal]G[dDab][hCha])), for which the IC50 stood at 0.03 nM. The result for `CC(=O)N1CCN(c2ccc(C[C@@H]3NC(=O)[C@H](CCc4ccc(O)cc4)NC(=O)[C@@H](CCN)NC(=O)CNC(=O)[C@H](CC4CCCCC4)NC(=O)[C@H](Cc4ccc(-c5ccc(C(=O)O)cc5)cc4)NC(=O)CNC(=O)[C@@H](C)N(C)C(=O)[C@H](CC(=O)O)NC(=O)[C@H]([C@@H](C)c4cccc5ccccc45)NC(=O)[C@@H]4C[C@@H](N)CN4C(=O)CNC(=O)[C@H](Cc4ccc(C(=O)O)cc4)NC(=O)[C@H](Cc4c[nH]c5ccccc45)NC3=O)cc2)CC1` [Example 202] (cyclo([Phe(4-(4-Ac-piperazinyl))]W[Phe(4-COOH)]G[Pro(4R-NH2)][1Nal(3S-Me)]D[dNMeA]G[Bip(4'-COOH)][Cha]G[dDab][hTyr])) reads 0.029 nM; that for `CC(=O)N1CCN(c2ccc(C[C@@H]3NC(=O)[C@H](CCC4CCCCC4)NC(=O)[C@@H](C)NC(=O)[C@H](CC(C)C)NC(=O)[C@H](CCN)NC(=O)[C@H](Cc4ccc(-c5ccc(C(=O)O)cc5)cc4)NC(=O)CNC(=O)[C@@H](C)N(C)C(=O)[C@H](CC(=O)O)NC(=O)[C@H]([C@@H](C)c4cccc5ccccc45)NC(=O)[C@@H]4C[C@@H](N)CN4C(=O)CNC(=O)[C@H](Cc4ccc(C(=O)O)cc4)NC(=O)[C@H](Cc4c[nH]c5ccccc45)NC3=O)cc2)CC1` [Example 203] (cyclo([Phe(4-(4-Ac-piperazinyl))]W[Phe(4-COOH)]G[Pro(4R-NH2)][1Nal(3S-Me)]D[dNMeA]G[Bip(4'-COOH)][Dab]L[dA][hCha])), 0.012 nM; that for `CC(=O)NC[C@@H]1NC(=O)[C@H](Cc2ccc(-c3ccc(C(=O)O)cc3)cc2)NC(=O)CNC(=O)[C@@H](C)N(C)C(=O)[C@H](CC(=O)O)NC(=O)[C@H]([C@@H](C)c2cccc3ccccc23)NC(=O)[C@@H]2C[C@@H](N)CN2C(=O)CNC(=O)[C@H](Cc2ccc(C(=O)O)cc2)NC(=O)[C@H](Cc2c[nH]c3ccccc23)NC(=O)[C@H](Cc2ccc(N3CCN(C(C)=O)CC3)cc2)NC(=O)[C@H](CCc2cncc(C#N)c2)NC(=O)[C@@H](C)NC(=O)[C@H](CCCCN)NC1=O` [Example 204] (cyclo([Phe(4-(4-Ac-piperazinyl))]W[Phe(4-COOH)]G[Pro(4R-NH2)][1Nal(3S-Me)]D[dNMeA]G[Bip(4'-COOH)][Dap](Ac)K[dA][h3Pal(5-CN)])), 0.009 nM. Turning to `CC(=O)NC[C@@H]1NC(=O)[C@H](Cc2ccc(-c3ccc(C(=O)O)cc3)cc2)NC(=O)CNC(=O)[C@@H](C)N(C)C(=O)[C@H](CC(=O)O)NC(=O)[C@H]([C@@H](C)c2cccc3ccccc23)NC(=O)[C@@H]2C[C@@H](N)CN2C(=O)CNC(=O)[C@H](Cc2ccc(C(=O)O)cc2)NC(=O)[C@H](Cc2c[nH]c3ccccc23)NC(=O)[C@H](Cc2ccc(N3CCN(C(C)=O)CC3)cc2)NC(=O)[C@H](CCc2cncc(C#N)c2)NC(=O)[C@@H](CN)NC(=O)[C@H](CC(C)C)NC1=O` [Example 205] (cyclo([Phe(4-(4-Ac-piperazinyl))]W[Phe(4-COOH)]G[Pro(4R-NH2)][1Nal(3S-Me)]D[dNMeA]G[Bip(4'-COOH)][Dap](Ac)L[dDap][h3Pal(5-CN)])), the IC50 was found to be 0.01 nM.
